According to ChEMBL document CHEMBL5233204, “Expanding the repertoire of methanocarba nucleosides from purinergic signaling to diverse targets” (RSC Med Chem, 2021):

Assays:
[1] = system: Human alphaherpesvirus 1; assay: Antiviral activity against HSV-1 by plaque reduction neutralization test; assay type: functional, organism-based
[2] = system: Human alphaherpesvirus 2; assay: Antiviral activity against HSV-2 by plaque reduction neutralization test; assay type: functional, organism-based
[3] = target: T1, P-gp (ABCB1) (Homo sapiens, UniProt P08183); assay: Inhibition of P-gp (unknown origin) ATPase activity at 10 uM relative to control
T1 sequence (P08183 whole entry): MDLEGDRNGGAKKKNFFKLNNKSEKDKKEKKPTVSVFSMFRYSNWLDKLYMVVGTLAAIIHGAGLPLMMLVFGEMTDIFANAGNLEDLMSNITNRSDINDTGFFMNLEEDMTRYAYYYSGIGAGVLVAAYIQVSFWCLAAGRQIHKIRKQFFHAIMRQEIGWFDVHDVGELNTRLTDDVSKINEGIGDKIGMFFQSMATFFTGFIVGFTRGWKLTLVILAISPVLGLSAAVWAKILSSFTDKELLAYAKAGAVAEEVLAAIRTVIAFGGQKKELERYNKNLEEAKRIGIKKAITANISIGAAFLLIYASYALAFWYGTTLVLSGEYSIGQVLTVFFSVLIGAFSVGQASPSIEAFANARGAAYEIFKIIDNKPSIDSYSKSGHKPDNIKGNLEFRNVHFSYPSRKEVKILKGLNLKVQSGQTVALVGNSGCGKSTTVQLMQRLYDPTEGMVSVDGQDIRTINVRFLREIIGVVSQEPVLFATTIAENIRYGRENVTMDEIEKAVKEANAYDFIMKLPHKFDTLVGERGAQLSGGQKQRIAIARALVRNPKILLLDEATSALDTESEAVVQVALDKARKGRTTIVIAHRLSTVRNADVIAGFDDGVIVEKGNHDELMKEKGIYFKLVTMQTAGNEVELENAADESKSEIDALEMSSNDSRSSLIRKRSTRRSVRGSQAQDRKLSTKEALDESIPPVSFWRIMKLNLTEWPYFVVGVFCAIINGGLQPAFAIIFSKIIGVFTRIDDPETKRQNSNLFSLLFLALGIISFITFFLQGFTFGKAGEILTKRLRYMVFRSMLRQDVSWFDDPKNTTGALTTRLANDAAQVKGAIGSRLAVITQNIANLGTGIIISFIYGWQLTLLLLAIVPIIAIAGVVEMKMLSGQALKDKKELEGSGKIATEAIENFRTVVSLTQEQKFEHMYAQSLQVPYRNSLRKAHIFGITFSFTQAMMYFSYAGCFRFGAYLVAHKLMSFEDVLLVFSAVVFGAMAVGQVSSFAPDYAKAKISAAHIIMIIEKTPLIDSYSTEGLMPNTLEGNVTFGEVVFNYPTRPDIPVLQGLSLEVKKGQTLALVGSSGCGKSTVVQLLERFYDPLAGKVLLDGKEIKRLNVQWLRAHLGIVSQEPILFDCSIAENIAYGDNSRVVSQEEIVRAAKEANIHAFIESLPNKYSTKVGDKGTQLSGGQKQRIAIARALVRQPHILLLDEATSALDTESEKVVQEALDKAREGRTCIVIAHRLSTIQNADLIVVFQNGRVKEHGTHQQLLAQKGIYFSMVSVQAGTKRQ

[4] = target: T1, P-gp (ABCB1); assay: Activation of P-gp (unknown origin) ATPase activity at 10 uM relative to control; settings: read-out: Activity

Compound: Cc1cn([C@H]2C[C@H](O)[C@]3(CO)C[C@H]23)c(=O)[nH]c1=O [(NORTH)-METHANOCARBATHYMIDINE]
- IC50 [1]: 20 nM
- IC50 [2]: 250 nM

Compound: CNC(=O)[C@]12C[C@@H]1[C@@H](n1cnc3c(N[C@@H]4C[C@H]4c4ccc(F)c(F)c4)nc(C#Cc4ccccc4)nc31)[C@H](O)[C@@H]2O
- inhibition at 10 µM [3]: 53%

Compound: CNC(=O)[C@]12C[C@@H]1[C@@H](n1cnc3c(NCc4cccc(Cl)c4)nc(C#Cc4ccccc4)nc31)[C@H](O)[C@@H]2O
- activity at 10 µM [4]: 31%
